{"source": "patent US20130129686A1", "about": "“Reducing Inflammation Using Cell Therapy” (Regents of the University, priority 2009, published 2013)", "key": {"[1]": {"tested_on": "allogeneic T cell proliferation", "test": "Mixed leukocyte reaction (MLR), 3H-thymidine uptake", "type": "cell-based, mouse", "from_the_text": "Lymph nodes (LNs) were harvested from B6 mice and T-cells were purified using by negative selection using PE-conjugated anti-CD19, anti-CD11c, anti-NK1.1 and anti-PE magnetic beads (Miltenyi Biotech). Purity was routinely >95%. Spleens were harvested from BALB/c mice, T-cell depleted (anti-Thy1.1), and irradiated (3000 cGy). B6 T-cells were mixed at a 1:1 ratio with BALB/c splenic stimulators and plated in a 96 well round bottom plate (10^5 T-cells/well) or in the lower chamber of a 24 well plate TransWell insert (10^6 T-cells/well). MAPCs were irradiated (3000 cGy) and plated in a 96 well round bottom plate (10^4/well, 1:10) or in a 24 well TransWell plate (10^5/well, 1:10). Cells were incubated in “T-cell media” in 200 μl/well (96 well) or 800 μl/well (24 well) of RPMI 1640 (Invitrogen, Carlsbad, Calif.) supplemented with 10% FCS, […] 2-ME (Sigma-Aldrich), 10 mM HEPES buffer (Invitrogen), 1 mM sodium pyruvate (Invitrogen), amino acid supplements (1.5 mM L-glutamine, L-arginine, L-asparagine) (Sigma-Aldrich), 100 U/ml penicillin, […] streptomycin (Sigma-Aldrich). Cells were pulsed with ^3H-thymidine (1 μCi/well) 16-18 hours prior to harvesting and counted in the absence of scintillation fluid on a β-plate reader. […] Trypan blue exclusion was used to assess effects on live cells. […]"}, "PGE2": {"tested_on": "PGE2", "test": "PGE2 quantification in MAPC culture supernatant (PGE2 assay kit)", "type": "cell-based, mouse", "settings": "overnight treatment of MAPCs, 5 μM, for the period of the MLR culture (9 days)", "from_the_text": "Lymph nodes (LNs) were harvested from B6 mice and T-cells were purified using by negative selection using PE-conjugated anti-CD19, anti-CD11c, anti-NK1.1 and anti-PE magnetic beads (Miltenyi Biotech). Purity was routinely >95%. Spleens were harvested from BALB/c mice, T-cell depleted (anti-Thy1.1), and irradiated (3000 cGy). B6 T-cells were mixed at a 1:1 ratio with BALB/c splenic stimulators and plated in a 96 well round bottom plate (10^5 T-cells/well) or in the lower chamber of a 24 well plate TransWell insert (10^6 T-cells/well). MAPCs were irradiated (3000 cGy) and plated in a 96 well round bottom plate (10^4/well, 1:10) or in a 24 well TransWell plate (10^5/well, 1:10). […] Cells were pulsed with ^3H-thymidine (1 μCi/well) 16-18 hours prior to harvesting and counted in the absence of scintillation fluid on a β-plate reader. […]\nQuantitative determination of PGE2 in cell culture supernatants was performed using PGE2 assay kit (R&D Systems) by following manufacturer's instructions. Quantities of IL-10, TGF-β, IL-2, TNF-α, IFN-γ, and IL-12 were determined using Luminex technology (R&D Systems). […] The color development is stopped, and the absorbance is read at 450 nm. […]"}, "[2]": {"settings": "cited from earlier work"}}, "note": "Entries after “also recorded” stand apart in the source; their conditions may differ."}
{"smiles": "Cn1cc(C[C@@H](N)C(=O)O)c2ccccc21", "note": "[1MT, 1-methyl-D-tryptophan]", "values": [{"measurement": "additive effect with indomethacin pre-treatment of MAPCs", "setting": "[1]; 200 μM 1MT in co-culture plus MAPCs pre-treated with 5 μM indomethacin", "result": "little/no additive effect"}, {"measurement": "T-cell proliferation in MLR-MAPC co-cultures with IDO inhibitor", "setting": "[1]; 200 μM in culture media", "result": "did not increase T-cell proliferation; also recorded: did not affect T-cell proliferation"}]}
{"smiles": "COc1ccc2c(c1)c(CC(=O)O)c(C)n2C(=O)c1ccc(Cl)cc1", "note": "[indomethacin]", "values": [{"measurement": "upstream synthesis of PGE2 by MAPCs", "setting": "PGE2", "result": "potently inhibited"}]}
{"smiles": "CCCCC[C@H](O)/C=C/[C@H]1[C@H](O)CC(=O)[C@@H]1C/C=C\\CCCC(=O)O", "note": "[PGE2, prostaglandin E2]", "values": [{"measurement": "half-life in vivo", "setting": "[2]", "result": "~30", "unit": "s"}]}
